Experiment [1] addresses T1, human cyclin-dependent kinase 2 (Cdk2) (Homo sapiens, UniProt P24941).
T1 construct: poly-histidine; made in house; host or cells: E. coli
Description: Kinetic thiol consumption assay with wild type Cdk2 (C177). The format is binding. Set-up: key to Rate enhancement, Cdk2 WT: k(Cdk2) divided by k(model thiol); Rate constant with Cdk2 (k(Cdk2)): unit not given here. To be noted: for Rate constant with Cdk2 (k(Cdk2)): 500 μM ligand, 5 μM thiol, phosphate buffer pH 8; for Rate enhancement, Cdk2 WT: no additional mutations; for Rate constant with Cdk2 WT: Protein: Cdk2, cysteine position WT, in h^-1; for k(Cdk2)/k(Cdk2_mut) rate enhancement: model thiol Cdk2[C177A, F80C, K278C]; for k(Cdk2)/k(GSH) rate enhancement: model thiol glutathione. In short, it runs like this: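 Rate constants came from first-order exponential decay fits of normalized fluorescence against time, with thiol (5 μM) in degassed pH 8 phosphate buffer containing 2% v/v TCEP beads and reads after 1 h at room temperature.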

For the next experiment, the target named is T2, Cdk2(T182C) (C177A) (Homo sapiens, UniProt P24941, C177A/T182C).
T2 construct: poly-histidine; made in house; host or cells: E. coli
Description: Kinetic thiol consumption assay with Cdk2 mutant T182C. It is filed as binding. Set-up: key to Rate enhancement, Cdk2 T182C: rate constant with Cdk2 ÷ rate constant with model thiol (fold). The following applies: additional mutation C177A; for Rate constant with Cdk2 T182C: Protein: Cdk2, cysteine position T182C, in h^-1. In outline:
(§1)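 His-tagged single-surface-cysteine Cdk2 mutants (C177A background) from E. coli, 5 μM in degassed phosphate buffer pH 8, pre-treated with immobilized TCEP beads. Fluorescence (ex/em 380/470 nm) read after 1 h at room temperature, normalized to DMSO/thiol-only control; first-order decay fits gave rate constants, divided by model-thiol rate for rate enhancement.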

A further experiment addresses T3, Cdk2(N272C) (C177A) (Homo sapiens, UniProt P24941, C177A/N272C).
T3 construct: poly-histidine; made in house; host or cells: E. coli
Description: Kinetic thiol consumption assay with Cdk2 mutant N272C. The format is binding. Also on record: key to Rate enhancement, Cdk2 N272: rate constant with Cdk2 ÷ rate constant with model thiol (fold). To be noted: for Rate enhancement, Cdk2 N272: Cdk2 N272, additional mutation C177A; for Rate constant with Cdk2 N272C: Protein: Cdk2, cysteine position N272C, additional mutation C177A, in h^-1. In short, it runs like this: as §1

Another experiment addresses T4, Cdk2(R122C) (C177A) (Homo sapiens, UniProt P24941, C177A/R122C).
T4 construct: poly-histidine; made in house; host or cells: E. coli
Description: Kinetic thiol consumption assay with Cdk2 mutant R122C. The format is binding. To be noted: additional mutation C177A; for Rate constant with Cdk2 R122C: Protein: Cdk2, cysteine position R122C, in h-1. Set-up: key to Rate enhancement, Cdk2 R122C: rate constant with Cdk2 ÷ rate constant with model thiol (fold). In outline:
as §1

A short description of experiment [2]: Kinetic thiol consumption assay with model thiol glutathione. The format is physicochemical. Set-up: Rate constant with glutathione (k(GSH)): unit not given here. To be noted: for Rate constant with glutathione (k(GSH)): 500 μM ligand, 5 μM thiol, phosphate buffer pH 8; for Rate constant with Glutathione: Protein: Glutathione, cysteine position NA, in h-1. In short, it runs like this: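 First, 5 μM glutathione in degassed phosphate buffer (pH 8) receives immobilized TCEP beads (2% v/v). Then acrylamide is added and plates incubate 1 h at room temperature. Finally, fluorescence (380/470 nm) is normalized and fitted to first-order decay for rate constants.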

A further experiment has as its target T5, Cdk2(S276C) (C177A) (Homo sapiens, UniProt P24941, C177A/S276C).
T5 construct: poly-histidine; made in house; host or cells: E. coli
Kind of experiment: Kinetic thiol consumption assay with Cdk2 mutant S276C. It is filed as binding. Set-up: key to Rate enhancement, Cdk2 S276C: rate constant with Cdk2 ÷ rate constant with model thiol (fold). To be noted: additional mutation C177A; for Rate constant with Cdk2 S276C: Protein: Cdk2, cysteine position S276C, in h^-1. In outline: as §1

Another experiment deals with T6, Cdk2(H71C) (C177A) (Homo sapiens, UniProt P24941, C177A/H71C).
T6 construct: poly-histidine; made in house; host or cells: E. coli
Description: Kinetic thiol consumption assay with Cdk2 mutant H71C. It is filed as binding. Also on record: key to Rate enhancement, Cdk2 H71C: rate constant with Cdk2 ÷ rate constant with model thiol (fold). The following applies: additional mutation C177A; for Rate constant with Cdk2 H71C: Protein: Cdk2, cysteine position H71C, in h^-1. In outline:
as §1

A further experiment deals with T7, Cdk2(C177A, F80C) (Homo sapiens, UniProt P24941, C177A/F80C).
T7 construct: poly-histidine; made in house; host or cells: E. coli
Kind of experiment: Kinetic thiol consumption assay with Cdk2 mutant F80C, incl. kobs versus concentration (Kd, k2). Set-up: key to Rate enhancement, Cdk2 F80C: Cdk2 rate constant divided by model-thiol rate constant. It is filed as binding. The following applies: additional mutation C177A; for Rate constant with Cdk2 F80C: Protein: Cdk2, cysteine position F80C, in h^-1. In short, it runs like this: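 His-tagged Cdk2(C177A/F80C) from E. coli or model thiol, 5 μM in degassed phosphate buffer pH 8 with TCEP beads, reacted with acrylamide ligands; fluorescence (ex/em 380/470 nm) normalized to DMSO control and fitted to first-order decay for kobs. Kd and k2 obtained from hyperbolic fit of kobs versus ligand concentration.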

The target of a further experiment is T8, Cdk2[C177A, F80C, K278C] (Homo sapiens, UniProt P24941, C177A/F80C/K278C).
T8 construct: poly-histidine; made in house; host or cells: E. coli
Kind of experiment: Kinetic thiol consumption assay with mutant Cdk2 as model thiol. The format is binding. Set-up: unit not given here. The following applies: 500 μM ligand, 5 μM thiol, phosphate buffer pH 8. In outline:
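Model thiol: His-tagged human Cdk2 C177A/F80C/K278C (two engineered surface cysteines), E. coli-expressed, 5 μM in degassed phosphate buffer pH 8 with immobilized TCEP beads (2% v/v). Fluorescence (ex/em 380/470 nm) followed over time at room temperature, normalized to DMSO/thiol control. First-order decay fit gives rate constants.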

Another experiment addresses T9, Cdk2(S181C) (C177A) (Homo sapiens, UniProt P24941, C177A/S181C).
T9 construct: poly-histidine; made in house; host or cells: E. coli
Kind of experiment: Kinetic thiol consumption assay with Cdk2 mutant S181C. Also on record: key to Rate enhancement, Cdk2 S181C: rate constant with Cdk2 ÷ rate constant with model thiol (fold). The format is binding. The following applies: additional mutation C177A; for Rate constant with Cdk2 S181C: Protein: Cdk2, cysteine position S181C, in h^-1. In short, it runs like this:
as §1

Three compounds from patent publication US11415579B2, “Assay for measuring a rate of reaction between a target and a ligand candidate” (Imperial College Innovations Ltd., priority 2016, dated 2022) can be followed below.

On to `C=CC(=O)N1CCCCCC1c1cccs1` (stereo not drawn) [EL-1063], for which, in [1], the “Rate constant with Cdk2 (k(Cdk2))” value was found to be 0.00274; the “Rate enhancement, Cdk2 WT” value came to 0.8082; the “Rate constant with Cdk2 WT” value is on record as 0.002743; the “k(Cdk2)/k(Cdk2_mut) rate enhancement” value is listed as 0.5955. Besides, in [1], the “k(Cdk2)/k(GSH) rate enhancement” value amounted to 0.7775. On Cdk2(T182C) (C177A), the “Rate enhancement, Cdk2 T182C” value came to 9.081 and the “Rate constant with Cdk2 T182C” value is given as 0.03082. Further, at Cdk2(N272C) (C177A), the “Rate enhancement, Cdk2 N272” value amounted to 1.172 and the “Rate constant with Cdk2 N272C” value stood at 0.003977. Also, at Cdk2(R122C) (C177A), the “Rate enhancement, Cdk2 R122C” value is 0.7319 and the “Rate constant with Cdk2 R122C” value is listed as 0.002484. Besides, in experiment [2], the “Rate constant with glutathione (k(GSH))” value was 0.00353 and the “Rate constant with Glutathione” value is 0.003394. Further, on Cdk2(S276C) (C177A), the “Rate enhancement, Cdk2 S276C” value was found to be 0.5613 and the “Rate constant with Cdk2 S276C” value is given as 0.001905. In addition, at Cdk2(H71C) (C177A), the “Rate enhancement, Cdk2 H71C” value came out at 1.092 and the “Rate constant with Cdk2 H71C” value is listed as 0.003705. For the same compound, on Cdk2(C177A, F80C), the “Rate enhancement, Cdk2 F80C” value is given as 2.756 and the “Rate constant with Cdk2 F80C” value is 0.009353. Moreover, the “Rate constant with Cdk2[C177A, F80C, K278C] (k(Cdk2_mut))” value (“Rate constant … (k(Cdk2_mut))” below) on Cdk2[C177A, F80C, K278C] is listed as 0.00461. At Cdk2(S181C) (C177A), the “Rate enhancement, Cdk2 S181C” value amounted to 1.561 and the “Rate constant with Cdk2 S181C” value is listed as 0.005297.
On to `C=CC(=O)N1CCCC1c1cnc2ccccc2c1` (stereo not drawn) [EL-1064], for which, in experiment [1], the “Rate constant with Cdk2 (k(Cdk2))” value is 0.00589; the “Rate enhancement, Cdk2 WT” value was found to be 0.4929; the “Rate constant with Cdk2 WT” value is listed as 0.00589; the “k(Cdk2)/k(Cdk2_mut) rate enhancement” value was found to be 0.7691. Moreover, the “k(Cdk2)/k(GSH) rate enhancement” value in [1] is recorded as 0.489. On Cdk2(T182C) (C177A), the “Rate enhancement, Cdk2 T182C” value came to 1.7 and the “Rate constant with Cdk2 T182C” value turned out to be 0.02031. Also, on Cdk2(N272C) (C177A), the “Rate enhancement, Cdk2 N272” value is 1.056 and the “Rate constant with Cdk2 N272C” value worked out at 0.01262. In addition, at Cdk2(R122C) (C177A), the “Rate enhancement, Cdk2 R122C” value worked out at 0.5786 and the “Rate constant with Cdk2 R122C” value is reported as 0.006914. Also, in [2], the “Rate constant with glutathione (k(GSH))” value is recorded as 0.01205 and the “Rate constant with Glutathione” value came to 0.01195. In addition, at Cdk2(S276C) (C177A), the “Rate enhancement, Cdk2 S276C” value was 1.074 and the “Rate constant with Cdk2 S276C” value worked out at 0.01284. Further, on Cdk2(H71C) (C177A), the “Rate enhancement, Cdk2 H71C” value was found to be 0.8653 and the “Rate constant with Cdk2 H71C” value came out at 0.01034. In addition, on Cdk2(C177A, F80C), the “Rate enhancement, Cdk2 F80C” value was 1.645 and the “Rate constant with Cdk2 F80C” value was found to be 0.01966. For the same compound, the “Rate constant … (k(Cdk2_mut))” value on Cdk2[C177A, F80C, K278C] was found to be 0.00766. Moreover, at Cdk2(S181C) (C177A), the “Rate enhancement, Cdk2 S181C” value worked out at 1.469 and the “Rate constant with Cdk2 S181C” value was 0.01756.
For `C=CC(=O)NC1C[C@@H](C(=C)C)CC=C1C` (stereo partly drawn) [EL-1074], in [1], the “Rate constant with Cdk2 (k(Cdk2))” value is given as 0.003; the “Rate enhancement, Cdk2 WT” value stood at 0.5934; the “Rate constant with Cdk2 WT” value stood at 0.006082; the “k(Cdk2)/k(Cdk2_mut) rate enhancement” value stood at 0.8773. Also, the “k(Cdk2)/k(GSH) rate enhancement” value in [1] stood at 0.3421. Also, on Cdk2(T182C) (C177A), the “Rate enhancement, Cdk2 T182C” value was 1.829 and the “Rate constant with Cdk2 T182C” value was found to be 0.01875. Further, on Cdk2(N272C) (C177A), the “Rate enhancement, Cdk2 N272” value is recorded as 0.6473 and the “Rate constant with Cdk2 N272C” value was found to be 0.006635. Besides, at Cdk2(R122C) (C177A), the “Rate enhancement, Cdk2 R122C” value was determined as 0.322 and the “Rate constant with Cdk2 R122C” value stood at 0.0033. Also, in experiment [2], the “Rate constant with glutathione (k(GSH))” value came out at 0.00876 and the “Rate constant with Glutathione” value was 0.01025. Moreover, at Cdk2(S276C) (C177A), the “Rate enhancement, Cdk2 S276C” value is reported as 0.4274 and the “Rate constant with Cdk2 S276C” value is given as 0.004381. On Cdk2(H71C) (C177A), the “Rate enhancement, Cdk2 H71C” value was 0.248 and the “Rate constant with Cdk2 H71C” value is reported as 0.002542. Besides, at Cdk2(C177A, F80C), the “Rate enhancement, Cdk2 F80C” value was 0.4555 and the “Rate constant with Cdk2 F80C” value is on record as 0.004669. Moreover, on Cdk2[C177A, F80C, K278C], the “Rate constant … (k(Cdk2_mut))” value amounted to 0.00342. Further, at Cdk2(S181C) (C177A), the “Rate enhancement, Cdk2 S181C” value turned out to be 0.214 and the “Rate constant with Cdk2 S181C” value is 0.002194.
